Data published in patent publication US7759337B2, “Phthalazine compounds and methods of use” (Amgen Inc., priority 2005, dated 2010).

The compounds below were run on production of TNF by monocytes activated with bacterial lipopolysaccharide (LPS) (assay: Lipopolysaccharide-activated monocyte TNF production assay). Conditions: Homo sapiens; whole blood monocyte assay (LPS induced TNF release).
Type: cell-based
Method in brief: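 Adherent human PBMC-derived monocytes preincubated 60 min with nine two-fold compound dilutions, then stimulated with E. coli K532 LPS (30 ng/mL in the added medium) for 4 h at 37 °C. Supernatant TNF measured by sandwich ELISA; IC50 is the compound concentration halving TNF production, from second-order polynomial fits.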
With Cc1ccc(C(=O)NC2CC2)cc1-c1ccc2c(N3CCCC[C@H]3C)nncc2c1 [Example 180, N-cyclopropyl-4-methyl-3-{1-[(2R)-2-methylpiperidin-1-yl]phthalazin-6-yl}benzamide] the IC50 was at most 5 µM. Compound CNC(=O)c1ccc(C)c(-c2ccc3c(N4CCOCC4)nncc3c2)c1 [Example 181, N,4-dimethyl-3-(1-morpholin-4-ylphthalazin-6-yl)benzamide] has an IC50 of at most 5 µM. For Cc1ccc(C(N)=O)cc1-c1ccc2c(N3CCCC[C@H]3C)nncc2c1 [Example 182, 4-methyl-3-{1-[(2R)-2-methylpiperidin-1-yl]phthalazin-6-yl}benzamide], the IC50 was at most 5 µM. Work on Cc1ccc(C(=O)NC2CC2)cc1-c1ccc2c(NCCN(C)C)nncc2c1 [Example 183, N-cyclopropyl-3-(1-{[2-(dimethylamino)ethyl]amino}phthalazin-6-yl)-4-methylbenzamide] yielded an IC50 of at most 5 µM. For Cc1ccc(C(N)=O)cc1-c1ccc2c(N3CCOC[C@@H]3C)nncc2c1 [Example 184, 4-methyl-3-{1-[(3S)-3-methylmorpholin-4-yl]phthalazin-6-yl}benzamide], the IC50 was at most 5 µM. With Cc1ccc(C(N)=O)cc1-c1ccc2c(N[C@H](C)CO)nncc2c1 [Example 185, 3-(1-{[(1R)-2-hydroxy-1-methylethyl]amino}phthalazin-6-yl)-4-methylbenzamide] the IC50 was at most 5 µM. CCN(CC)CCNc1nncc2cc(-c3cc(C(=O)NC4CC4)ccc3C)ccc12 [Example 186, N-cyclopropyl-3-(1-{[2-(diethylamino)ethyl]amino}phthalazin-6-yl)-4-methylbenzamide] was tested, and the IC50 was at most 5 µM. Cc1ccc(C(=O)NC2CC2)cc1-c1ccc2c(N(C)C)nncc2c1 [Example 187, N-cyclopropyl-3-[1-(dimethylamino)phthalazin-6-yl]-4-methylbenzamide] was tested, and the IC50 was at most 5 µM. Work on COCCN(C)c1nncc2cc(-c3cc(C(=O)NC4CC4)ccc3C)ccc12 [Example 188, N-cyclopropyl-3-{1-[(2-methoxyethyl)(methyl)amino]phthalazin-6-yl}-4-methylbenzamide] yielded an IC50 of at most 5 µM. Work on COCCNc1nncc2cc(-c3cc(C(N)=O)ccc3C)ccc12 [Example 189, 3-{1-[(2-methoxyethyl)amino]phthalazin-6-yl}-4-methylbenzamide] yielded an IC50 of at most 5 µM. In the case of COC[C@H](C)Nc1nncc2cc(-c3cc(C(N)=O)ccc3C)ccc12 [Example 190, 3-(1-{[(1S)-2-methoxy-1-methylethyl]amino}phthalazin-6-yl)-4-methylbenzamide], the IC50 is reported as at most 5 µM. Cc1ccc(C(=O)NC2CC2)cc1-c1ccc2c(N[C@@H](C)C(=O)OC(C)(C)C)nncc2c1 [Example 191, tert-butyl N-(6-{5-[(cyclopropylamino)carbonyl]-2-methylphenyl}phthalazin-1-yl)-L-alaninate] gave an IC50 of at most 5 µM. COC[C@H](C)Nc1nncc2cc(-c3cc(C(=O)NC4CC4)ccc3C)ccc12 [Example 192, N-cyclopropyl-3-(1-{[(1S)-2-methoxy-1-methylethyl]amino}phthalazin-6-yl)-4-methylbenzamide] was tested, and the IC50 was at most 5 µM. In the case of Cc1ccc(C(=O)NC2CC2)cc1-c1ccc2c(N[C@H](C)c3ccccc3)nncc2c1 [Example 193, N-cyclopropyl-4-methyl-3-(1-{[(1R)-1-phenylethyl]amino}phthalazin-6-yl)benzamide], the IC50 is reported as at most 5 µM. Work on COCCNc1nncc2cc(-c3cc(C(=O)NC4CC4)ccc3C)ccc12 [Example 194, N-cyclopropyl-3-{1-[(2-methoxyethyl)amino]phthalazin-6-yl}-4-methylbenzamide] yielded an IC50 of at most 5 µM. Compound Cc1ccc(S(C)(=O)=O)cc1-c1ccc2c(N3CCOCC3)nncc2c1 [Example 195, 6-[2-methyl-5-(methylsulfonyl)phenyl]-1-morpholin-4-ylphthalazine] has an IC50 of at most 5 µM. For COc1ncncc1-c1nncc2cc(-c3cc(C(N)=O)ccc3C)ccc12 [Example 196, 3-[1-(4-methoxypyrimidin-5-yl)phthalazin-6-yl]-4-methylbenzamide], the IC50 was at most 5 µM. COc1nc(N(C)C)ncc1-c1nncc2cc(-c3cc(C(=O)NC4CC4)ccc3C)ccc12 [Example 197, N-cyclopropyl-3-{1-[2-(dimethylamino)-4-methoxypyrimidin-5-yl]phthalazin-6-yl}-4-methylbenzamide] showed an IC50 of at most 5 µM. In the case of COc1cccc(-c2nncc3cc(-c4cc(C(N)=O)ccc4C)ccc23)c1OC [Example 198, 3-[1-(2,3-dimethoxyphenyl)phthalazin-6-yl]-4-methylbenzamide], the IC50 is reported as at most 5 µM. For Cc1ccc(C(N)=O)cc1-c1ccc2c(-c3ccc(C(F)(F)F)cc3Cl)nncc2c1 [Example 199, 3-{1-[2-chloro-4-(trifluoromethyl)phenyl]phthalazin-6-yl}-4-methylbenzamide], the IC50 was at most 5 µM. COc1c(C)cccc1-c1nncc2cc(-c3cc(C(=O)NC4CC4)ccc3C)ccc12 [Example 201, N-cyclopropyl-3-[1-(2-methoxy-3-methylphenyl)phthalazin-6-yl]-4-methylbenzamide] was tested, and the IC50 was at most 5 µM. With COc1ccc(-c2nncc3cc(-c4cc(C(N)=O)ccc4C)ccc23)c(C)c1 [Example 202, 3-[1-(4-methoxy-2-methylphenyl)phthalazin-6-yl]-4-methylbenzamide] the IC50 was at most 5 µM. Cc1ccc(C(N)=O)cc1-c1ccc2c(-c3ccc(CN4CCOCC4)cc3)nncc2c1 [Example 203, 4-methyl-3-{1-[4-(morpholin-4-ylmethyl)phenyl]phthalazin-6-yl}benzamide] showed an IC50 of at most 5 µM. COc1c(C)cccc1-c1nncc2cc(-c3cc(C(N)=O)ccc3C)ccc12 [Example 204, 3-[1-(2-methoxy-3-methylphenyl)phthalazin-6-yl]-4-methylbenzamide] was tested, and the IC50 was at most 5 µM. Compound Cc1ccc(C(=O)NC2CC2)cc1-c1ccc2c(-c3ccc(C(C)(C)C(=O)O)cc3)nncc2c1 [Example 205, 2-[4-(6-{5-[(cyclopropylamino)carbonyl]-2-methylphenyl}phthalazin-1-yl)phenyl]-2-methylpropanoic acid] has an IC50 of at most 5 µM. In the case of CNc1ccc(-c2nncc3cc(-c4cc(C(=O)NC5CC5)ccc4C)ccc23)c(OC)n1 [Example 206, N-cyclopropyl-3-{1-[2-methoxy-6-(methylamino)pyridin-3-yl]phthalazin-6-yl}-4-methylbenzamide], the IC50 is reported as at most 5 µM. For COc1ccc(-c2nncc3cc(-c4cc(C(=O)NC5CC5)ccc4C)ccc23)c(C)n1 [Example 207, N-cyclopropyl-3-[1-(6-methoxy-2-methylpyridin-3-yl)phthalazin-6-yl]-4-methylbenzamide], the IC50 was at most 5 µM. Compound Cc1ccc(C(=O)NC2CC2)cc1-c1ccc2c(-c3ccc(-c4ccc(Cl)cc4)cc3)nncc2c1 [Example 208, 3-[1-(4′-chloro-1,1′-biphenyl-4-yl)phthalazin-6-yl]-N-cyclopropyl-4-methylbenzamide] has an IC50 of at most 5 µM. Cc1ccc(C(=O)NC2CC2)cc1-c1ccc2c(-c3ccc(Cl)cc3)nncc2c1 [Example 209, 3-[1-(4-chlorophenyl)phthalazin-6-yl]-N-cyclopropyl-4-methylbenzamide] showed an IC50 of at most 5 µM. Work on Cc1ccc(C(=O)NC2CC2)cc1-c1ccc2c(-c3ccc(Cl)cc3C(F)(F)F)nncc2c1 [Example 210, 3-{1-[4-chloro-2-(trifluoromethyl)phenyl]phthalazin-6-yl}-N-cyclopropyl-4-methylbenzamide] yielded an IC50 of at most 5 µM.
